For the test, the system named is E. coli BL21 transformed with pET28_CHI_ΔLid and pET22_ERED. The test is described as follows: Whole-cell biocatalysis of naringin. It counts as cell-based. As to conditions: 150 μM naringin, cell suspension OD=150 in 20 mM TRIS-HCl pH 7.5, gassed with nitrogen, 23° C., 900 rpm, 22 h. As to the method:
After successful cloning the plasmid pET28_CHI_ΔLid (FIG. 1) together with the plasmid pET22_ERED was transformed into E. coli BL21.
200 mL LBkan, amp were inoculated with 1% (v/v) of an overnight culture and grown at 37° C. to an OD≥1. The induction of the expression was then carried out with 0.1 mM IPTG. The expression of the protein was carried out for 21 h at 20° C.
After the harvesting of the cells these were normalised with 20 mM TRIS-HCl pH 7.5 to an OD=150. For the implementation of the biocatalyses in each case 490 μL of the cell suspension was added with 10 μL naringin solution (stock solution: 7.5 mM naringin dissolved in 1,2-propylene glycol; final concentration: 150 μM) to a 2 mL Eppendorf reaction vessel and gassed with nitrogen. The biocatalyses were carried out at 23° C., 900 rpm and 22 h. The extraction of the substrates was carried out twice with ethyl acetate.

Regarding `C[C@@H]1O[C@@H](O[C@H]2[C@H](Oc3cc(O)c4c(c3)O[C@H](c3ccc(O)cc3)CC4=O)O[C@H](CO)[C@@H](O)[C@@H]2O)[C@H](O)[C@H](O)[C@H]1O` [naringin], the “conversion of the naringin” value was 65%.

(Values after patent US10538797B2, “Method for the biotechnological production of flavone glycoside dihydrochalcones” (priority 2014, dated 2020).)
